Numbered stars: 1 amine (or outer) side, 2 acyl side, 3 side chain; on linkers, the order of the positions; unused ones are H or OH. Bridge positions count the residues as written; N and C are the ends. Square brackets hold non-standard residues; d marks the D form. Peptide text beside a SMILES is read from it. * marks the point of attachment. ξ: configuration not given here. Ala(piperidin-4-yl) = O=C([C@H](CC1CCN([*:3])CC1)N[*:1])[*:2]; Phe(4-COOH) = N[C@@H](Cc1ccc(C(=O)O)cc1)C(=O)O; Phe(4-CH2NH2) = NCc1ccc(C[C@H](N)C(=O)O)cc1; Bip = N[C@@H](Cc1ccc(-c2ccccc2)cc1)C(=O)O; Phe(3-Cl) = N[C@@H](Cc1cccc(Cl)c1)C(=O)O; Phe(3-Me) = Cc1cccc(C[C@H](N)C(=O)O)c1; dPhe(3-F) = N[C@H](Cc1cccc(F)c1)C(=O)O; Val(3-OH) = CC(C)(O)[C@H](N)C(=O)O; aIle = CC[C@@H](C)[C@H](N)C(=O)O; 4Pal = N[C@@H](Cc1ccncc1)C(=O)O; Cha = N[C@@H](CC1CCCCC1)C(=O)O; Cit = NC(=O)NCCC[C@H](N)C(=O)O; Ile(3ξ) = CCC(C)[C@H](N)C(=O)O; Thr(3ξ) = CC(O)[C@H](N)C(=O)O; Pen = CC(C)(S)[C@H](N)C(=O)O; dNva = CCC[C@@H](N)C(=O)O; Carboxymethyl = O=C(O)C*; NMeA = CN[C@@H](C)C(=O)O; Orn = NCCC[C@H](N)C(=O)O; Dab = NCC[C@H](N)C(=O)O

T1 sequence (Q15116 25-288): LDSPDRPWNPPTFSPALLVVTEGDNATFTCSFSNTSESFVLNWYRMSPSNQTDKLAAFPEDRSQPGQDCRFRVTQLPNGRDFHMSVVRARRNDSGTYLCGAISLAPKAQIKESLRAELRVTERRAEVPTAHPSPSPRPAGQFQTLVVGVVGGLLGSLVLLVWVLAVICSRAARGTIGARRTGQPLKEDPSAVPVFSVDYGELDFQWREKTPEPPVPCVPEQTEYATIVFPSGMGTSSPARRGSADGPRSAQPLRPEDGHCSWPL

This experiment addresses T1, PE-labeled human PD-L1-Ig binding to Jurkat cell line over-expressing human PD-1 (Jurkat-PD-1) (Homo sapiens, UniProt Q15116).
T1 construct: expressed in transfected cells; host or cells: Jurkat
The experiment can be described thus: Jurkat-PD-1 Cell Binding High-Content Screening Assay (CBA): Method 1. The note with it: Jurkat-hPD-1 cells, PE-labeled PD-L1-Ig 20 nM final; read-out: Jurkat HPDL1 PD1 IC50 (uM) (Method 1).
For `CCC(C)[C@@H]1NC(=O)[C@H](Cc2ccc(-c3ccccc3)cc2)NC(=O)[C@H](C(C)C)NC(=O)[C@H](Cc2c[nH]c3ccccc23)NC(=O)[C@H](CC(=O)O)NC(=O)[C@H](Cc2ccc(O)cc2)NC(=O)[C@H](CC2CCNCC2)NC(=O)CSC[C@@H](C(=O)N[C@@H](C)C(N)=O)NC(=O)[C@H](C(C)O)NC(=O)[C@H](C(C)C)NC(=O)[C@H](CC2CCCCC2)NC(=O)[C@H](CCN)NC(=O)[C@@H](CC(C)C)NC(=O)[C@H](C)N(C)C1=O` (stereo partly drawn) [Compound 2043] ({CH2CO}-[Ala(piperidin-4-yl)]YDWV[Bip][Ile(3ξ)][NMeA][dL][Dab][Cha]V[Thr(3ξ)]CA-NH2; thioether N-14), the IC50 amounted to 0.01 µM.

`Cc1cccc(C[C@@H]2NC(=O)[C@H](CC(=O)O)NC(=O)[C@H](Cc3ccc(OCC(=O)O)cc3)NC(=O)[C@H](CC(N)=O)NC(=O)CSC[C@@H](C(N)=O)NC(=O)[C@H](CCCN)NC(=O)[C@H](C(C)C)NC(=O)[C@H](CC3CCCCC3)NC(=O)[C@H](CCN)NC(=O)[C@@H](CC(C)C)NC(=O)[C@H](C)N(C)C(=O)[C@H](Cc3ccc(OCC(=O)O)cc3)NC(=O)[C@H](Cc3ccc(-c4ccccc4)cc3)NC(=O)[C@H](Cc3ccc(OCC(=O)O)cc3)NC2=O)c1` [Compound 1668] ({CH2CO}-NY(Carboxymethyl)D[Phe(3-Me)]Y(Carboxymethyl)[Bip]Y(Carboxymethyl)[NMeA][dL][Dab][Cha]V[Orn]C-NH2; thioether N-14): the IC50 was 0.05 µM.

Regarding `Cc1cccc(C[C@@H]2NC(=O)[C@H](CC(=O)O)NC(=O)[C@H](Cc3ccc(O)cc3)NC(=O)[C@H](CC(N)=O)NC(=O)CSC[C@@H](C(=O)N[C@H](C)C(N)=O)NC(=O)[C@H](CCC(=O)O)NC(=O)[C@H](C(C)C)NC(=O)[C@H](CC3CCCCC3)NC(=O)[C@H](CCN)NC(=O)[C@@H](CC(C)C)NC(=O)[C@H](C)N(C)C(=O)[C@H](CCCNC(N)=O)NC(=O)[C@H](Cc3ccc(-c4ccccc4)cc3)NC(=O)[C@H](C(C)(C)O)NC2=O)c1` [Compound 1710] ({CH2CO}-NYD[Phe(3-Me)][Val(3-OH)][Bip][Cit][NMeA][dL][Dab][Cha]VEC[dA]-NH2; thioether N-14), the IC50 worked out at 0.11 µM.

`Cc1cccc(C[C@@H]2NC(=O)[C@H](CC(=O)O)NC(=O)[C@H](Cc3ccc(OCC(=O)O)cc3)NC(=O)[C@H](C(C)O)NC(=O)CSC[C@@H](C(N)=O)NC(=O)[C@H](CO)NC(=O)[C@H](C(C)(C)O)NC(=O)[C@H](CC3CCCCC3)NC(=O)[C@H](CCN)NC(=O)[C@@H](CC(C)C)NC(=O)[C@H](C)N(C)C(=O)[C@H](Cc3ccc(OCC(=O)O)cc3)NC(=O)[C@H](Cc3ccc(-c4ccccc4)cc3)NC(=O)[C@H](Cc3ccc(C(=O)O)cc3)NC2=O)c1` (stereo partly drawn) [Compound 2264] ({CH2CO}-[Thr(3ξ)]Y(Carboxymethyl)D[Phe(3-Me)][Phe(4-COOH)][Bip]Y(Carboxymethyl)[NMeA][dL][Dab][Cha][Val(3-OH)]SC-NH2; thioether N-14): the concentration for half-maximal inhibition (IC50) is 0.09 µM.

Turning to `CC(C)C[C@@H]1NC(=O)[C@H](CCN)NC(=O)[C@@H](CC(C)C)NC(=O)[C@H](C)N(C)C(=O)[C@H](CCCNC(N)=O)NC(=O)[C@H](Cc2ccc(-c3ccccc3)cc2)NC(=O)[C@H](C(C)C)NC(=O)[C@H](Cc2c[nH]c3ccccc23)NC(=O)[C@H](CC(=O)O)NC(=O)[C@H](Cc2cccc(Cl)c2)NC(=O)[C@H](CC(N)=O)NC(=O)CSC[C@@H](C(=O)N[C@@H](C)C(N)=O)NC(=O)[C@H]([C@@H](C)O)NC(=O)[C@H](C(C)C)NC1=O` [Compound 1310] ({CH2CO}-N[Phe(3-Cl)]DWV[Bip][Cit][NMeA][dL][Dab]LVTCA-NH2; thioether N-14), the IC50 turned out to be 0.11 µM.

For `CC(C)C[C@@H]1NC(=O)[C@H](CCCNC(=N)N)NC(=O)[C@@H](CC(N)=O)NC(=O)[C@H](C)N(C)C(=O)[C@H](CCCNC(=N)N)NC(=O)[C@H](Cc2ccc(-c3ccccc3)cc2)NC(=O)[C@H](C(C)C)NC(=O)[C@H](Cc2c[nH]c3ccccc23)NC(=O)[C@H](CC(=O)O)NC(=O)[C@H](Cc2ccc(O)cc2)NC(=O)[C@H](Cc2ccccc2)NC(=O)CSC[C@@H](C(=O)NCC(N)=O)NC(=O)[C@H](CO)NC(=O)[C@H](C(C)C)NC1=O` [Compound 1019] ({CH2CO}-FYDWV[Bip]R[NMeA][dN]RLVSCG-NH2; thioether N-14), the IC50 is 0.36 µM.

In the case of `CCC(C)[C@@H]1NC(=O)[C@H](Cc2ccc(-c3ccccc3)cc2)NC(=O)[C@H](C(C)C)NC(=O)[C@H](Cc2c[nH]c3ccccc23)NC(=O)[C@H](CC(=O)O)NC(=O)[C@H](Cc2ccc(O)cc2)NC(=O)[C@H](Cc2ccc(CN)cc2)NC(=O)CSC[C@@H](C(=O)N[C@@H](C)C(N)=O)NC(=O)[C@H](C(C)O)NC(=O)[C@H](C(C)C)NC(=O)[C@H](CC2CCCCC2)NC(=O)[C@H](CC(N)=O)NC(=O)[C@@H](CC(C)C)NC(=O)[C@H](C)N(C)C1=O` (stereo partly drawn) [Compound 2047] ({CH2CO}-[Phe(4-CH2NH2)]YDWV[Bip][Ile(3ξ)][NMeA][dL]N[Cha]V[Thr(3ξ)]CA-NH2; thioether N-14), the IC50 turned out to be 0.06 µM.

Turning to `CC[C@@H](C)[C@@H]1NC(=O)[C@H](Cc2ccc(-c3ccccc3)cc2)NC(=O)[C@H](CC(C)C)NC(=O)[C@H](Cc2cccc(C)c2)NC(=O)[C@H](CC(=O)O)NC(=O)[C@H](Cc2ccncc2)NC(=O)[C@H](Cc2ccc(OCC(=O)O)cc2)NC(=O)CSC[C@@H](C(N)=O)NC(=O)[C@H](CO)NC(=O)[C@H](C(C)C)NC(=O)[C@H](CC(C)C)NC(=O)[C@H](CC(N)=O)NC(=O)[C@@H](CC(C)C)NC(=O)[C@H](C)N(C)C1=O` [Compound 1638] ({CH2CO}-Y(Carboxymethyl)[4Pal]D[Phe(3-Me)]L[Bip][aIle][NMeA][dL]NLVSC-NH2; thioether N-14), the IC50 came to 0.07 µM.

For the molecule `CC(C)C[C@@H]1NC(=O)[C@H](Cc2c[nH]c3ccccc23)NC(=O)[C@H](CC(=O)O)NC(=O)[C@H](Cc2ccc(OCC(=O)O)cc2)NC(=O)[C@H](Cc2ccc(OCC(=O)O)cc2)NC(=O)CSC(C)(C)[C@@H](C(N)=O)NC(=O)[C@H](CO)NC(=O)[C@H](C(C)C)NC(=O)[C@H](CC(C)C)NC(=O)[C@H](CCN)NC(=O)[C@@H](CC(C)C)NC(=O)[C@H](C)N(C)C(=O)[C@H](C(C)C)NC(=O)[C@H](Cc2ccc(-c3ccccc3)cc2)NC1=O` [Compound 2260] ({CH2CO}-Y(Carboxymethyl)Y(Carboxymethyl)DWL[Bip]V[NMeA][dL][Dab]LVS[Pen]-NH2; thioether N-14), the half-maximal inhibitory concentration (IC50) is 0.26 µM.

Take `CC(C)C[C@@H]1NC(=O)[C@H](Cc2c[nH]c3ccccc23)NC(=O)[C@H](CC(=O)O)NC(=O)[C@H](Cc2ccc(O)cc2)NC(=O)[C@H](Cc2ccccc2)NC(=O)CSC[C@@H](C(=O)N[C@@H](C)C(N)=O)NC(=O)[C@H](CO)NC(=O)[C@H](C(C)C)NC(=O)[C@H](CC(C)C)NC(=O)[C@H](CCC(=O)O)NC(=O)[C@@H](C)NC(=O)[C@H](C)N(C)C(=O)[C@H](CCC(=O)O)NC(=O)[C@H](Cc2ccc(-c3ccccc3)cc2)NC1=O` [Compound 1792] ({CH2CO}-FYDWL[Bip]E[NMeA][dA]ELVSCA-NH2; thioether N-14): the IC50 was found to be 0.13 µM.

For the molecule `CC(C)C[C@@H]1NC(=O)[C@H](CCN)NC(=O)[C@@H](CC(C)C)NC(=O)[C@H](C)N(C)C(=O)[C@H](CCCNC(=N)N)NC(=O)[C@H](Cc2ccc(-c3ccccc3)cc2)NC(=O)[C@H](C(C)C)NC(=O)[C@H](Cc2c[nH]c3ccccc23)NC(=O)[C@H](CC(=O)O)NC(=O)[C@H](Cc2ccc(O)cc2)NC(=O)[C@H](Cc2ccccc2)NC(=O)CSC[C@@H](C(=O)N[C@H](C)C(N)=O)NC(=O)[C@H]([C@@H](C)O)NC(=O)[C@H](C(C)C)NC1=O` [Compound 1170] ({CH2CO}-FYDWV[Bip]R[NMeA][dL][Dab]LVTC[dA]-NH2; thioether N-14), the IC50 came out at 0.05 µM.

Turning to `CC(C)C[C@@H]1NC(=O)[C@H](CCCNC(=N)N)NC(=O)[C@@H](Cc2cccc(F)c2)NC(=O)[C@H](C)N(C)C(=O)[C@H](CCCNC(=N)N)NC(=O)[C@H](Cc2ccc(-c3ccccc3)cc2)NC(=O)[C@H](C(C)C)NC(=O)[C@H](Cc2c[nH]c3ccccc23)NC(=O)[C@H](CC(=O)O)NC(=O)[C@H](Cc2ccc(O)cc2)NC(=O)[C@H](Cc2ccccc2)NC(=O)CSC[C@@H](C(=O)N[C@@H](C)C(N)=O)NC(=O)[C@H]([C@@H](C)O)NC(=O)[C@H](C(C)C)NC1=O` [Compound 1071] ({CH2CO}-FYDWV[Bip]R[NMeA][dPhe(3-F)]RLVTCA-NH2; thioether N-14), the IC50 worked out at 0.13 µM.

Regarding `CC(C)C[C@@H]1NC(=O)[C@H](CCN)NC(=O)[C@@H](CC(C)C)NC(=O)[C@H](C)N(C)C(=O)[C@H](CCCNC(N)=O)NC(=O)[C@H](Cc2ccc(-c3ccccc3)cc2)NC(=O)[C@H](C(C)C)NC(=O)[C@H](Cc2c[nH]c3ccccc23)NC(=O)[C@H](CC(=O)O)NC(=O)[C@H](Cc2ccc(O)cc2)NC(=O)[C@H](CCCCN)NC(=O)CSC[C@@H](C(=O)N[C@@H](C)C(N)=O)NC(=O)[C@H]([C@@H](C)O)NC(=O)[C@H](C(C)C)NC1=O` [Compound 1348] ({CH2CO}-KYDWV[Bip][Cit][NMeA][dL][Dab]LVTCA-NH2; thioether N-14), the IC50 was 0.05 µM.

Consider `CCC[C@H]1NC(=O)[C@H](C)N(C)C(=O)[C@H](CCCNC(=N)N)NC(=O)[C@H](Cc2ccc(-c3ccccc3)cc2)NC(=O)[C@H](C(C)C)NC(=O)[C@H](Cc2c[nH]c3ccccc23)NC(=O)[C@H](CC(=O)O)NC(=O)[C@H](Cc2ccc(O)cc2)NC(=O)[C@H](Cc2ccccc2)NC(=O)CSC[C@@H](C(=O)N[C@@H](C)C(N)=O)NC(=O)[C@H]([C@@H](C)O)NC(=O)[C@H](C(C)C)NC(=O)[C@H](CC(C)C)NC(=O)[C@H](CCCNC(=N)N)NC1=O` [Compound 1064] ({CH2CO}-FYDWV[Bip]R[NMeA][dNva]RLVTCA-NH2; thioether N-14), for which the IC50 is 0.1 µM.

Turning to `CC(C)C[C@@H]1NC(=O)[C@H](CCN)NC(=O)[C@@H](CC(C)C)NC(=O)[C@H](C)N(C)C(=O)[C@H](CCCNC(=N)N)NC(=O)[C@H](Cc2ccc(-c3ccccc3)cc2)NC(=O)[C@H](C(C)C)NC(=O)[C@H](Cc2c[nH]c3ccccc23)NC(=O)[C@H](CC(=O)O)NC(=O)[C@H](Cc2cnc[nH]2)NC(=O)[C@H](Cc2ccccc2)NC(=O)CSC[C@@H](C(=O)N[C@@H](C)C(N)=O)NC(=O)[C@H]([C@@H](C)O)NC(=O)[C@H](C(C)C)NC1=O` [Compound 1130] ({CH2CO}-FHDWV[Bip]R[NMeA][dL][Dab]LVTCA-NH2; thioether N-14), the IC50 turned out to be 0.18 µM.
